Laboratory results published in DBAASP.
Values after ≈ are worked out from the molar mass of the structure shown.

Columns and labels:
Assay in all cases: ≥ marks a high value that may be exact or a test limit, other limits are often not marked, values filed in µg/mL are converted to µM
[1] = system: Staphylococcus aureus LAC
[2] = system: Escherichia coli ATCC 25922
[3] = system: Staphylococcus aureus 209P
[4] = system: Bacillus megaterium VKM41
[5] = system: Pseudomonas aeruginosa PAO1
Escherichia coli ML-35p = system: Escherichia coli ML-35p
Acinetobacter baumannii = system: Acinetobacter baumannii
Escherichia coli C600 = system: Escherichia coli C600
[6] = system: Escherichia coli BL21(DE3)
[7] = system: Bacillus licheniformis VK21
[8] = system: Micrococcus luteus VKM B-1314
[9] = system: Bacillus subtilis VKM B-886
[10] = system: Staphylococcus aureus ATCC 29213
[11] = system: Escherichia coli CCARM 1238
[12] = system: Pseudomonas aeruginosa 4007
[13] = system: Escherichia coli CCARM 1229
[14] = system: Candida albicans KCTC 7270
[15] = system: Staphylococcus aureus CCARM 3090
[16] = system: Trichosporon beigelii KCTC 7707
[17] = system: Staphylococcus aureus CCARM 3518
[18] = system: Pseudomonas aeruginosa 4891
[19] = system: Serratia marcescens ATCC 13880
[20] = system: Klebsiella pneumoniae ATCC 700603
[21] = system: Klebsiella oxytoca ATCC 13182
[22] = system: Staphylococcus aureus ATCC 80958
[23] = system: Escherichia coli ATCC 35218
Aspergillus niger = system: Aspergillus niger
Penicillium expansum = system: Penicillium expansum
[24] = system: Enterococcus faecalis KCCM 29212
[25] = system: Pseudomonas aeruginosa KCTC 1637
[26] = system: Enterococcus faecalis ATCC 51575
[27] = system: Salmonella typhimurium KCTC 1926
[28] = system: Bacillus subtilis KCTC 3068
[29] = system: Escherichia coli KCTC 1682
[30] = system: Staphylococcus epidermidis KCTC 1917
[31] = system: Enterococcus faecium KCCM 12118
[32] = system: Staphylococcus aureus KCCM 40510
[33] = system: Staphylococcus aureus KCTC 1621
[34] = system: Enterococcus faecium ATCC 51559
Staphylococcus aureus MR = system: Staphylococcus aureus MR
[35] = system: Candida glabrata ATCC 2001
[36] = system: Candida albicans ATCC 14053
[37] = system: Candida parapsilosis ATCC 22019
[38] = system: Cronobacter sakazakii ATCC 29544
Escherichia coli ESBL = system: Escherichia coli ESBL
Pseudomonas aeruginosa = system: Pseudomonas aeruginosa
[39] = system: Pseudomonas aeruginosa ATCC 27853
[40] = system: Escherichia coli ATCC 43827
[41] = system: Candida tropicalis ATCC 750
Candida krusei ATCC 6258 = system: Candida krusei ATCC 6258
[42] = system: Staphylococcus epidermidis ATCC 12228
[43] = system: Bacillus subtilis ATCC 23857

With NC(N)=NCCC[C@H](NC(=O)[C@H](CCCN=C(N)N)NC(=O)[C@H](CCCN=C(N)N)NC(=O)[C@H](CCCN=C(N)N)NC(=O)[C@H](Cc1ccccc1)NC(=O)[C@H](Cc1ccccc1)NC(=O)[C@H](Cc1ccccc1)NC(=O)[C@@H](N)Cc1ccccc1)C(=O)O [FFFFRRRR] the MIC [1] was ≥ 104 µM and the MIC [2] was > 104 µM.

In the case of CC[C@H](C)[C@H](NC(=O)[C@H](C)NC(=O)[C@@H](NC(=O)CNC(=O)[C@@H](NC(=O)[C@H](CC(N)=O)NC(=O)[C@H](CCCCN)NC(=O)[C@H](C)NC(=O)CNC(=O)[C@H](CC(=O)O)NC(=O)[C@H](Cc1c[nH]c2ccccc12)NC(=O)[C@@H](NC(=O)[C@H](CO)NC(=O)[C@H](CO)NC(=O)[C@H](Cc1c[nH]c2ccccc12)NC(=O)[C@H](Cc1ccccc1)NC(=O)CN)C(C)C)C(C)C)[C@@H](C)O)C(=O)O [GFWSSVWDGAKNVGTAI], the MIC [3] is reported as 16 µM (≈ 28.7 µg/mL), the MIC [4] is reported as 16 µM (≈ 28.7 µg/mL) and the MIC [5] is reported as > 64 µM. The MIC (Escherichia coli ML-35p) was ≥ 64 µM, the MIC (Acinetobacter baumannii) was ≥ 64 µM and the MIC (Escherichia coli C600) was ≥ 64 µM. The MIC [6] was ≥ 64 µM, the MIC [7] was 16 µM (≈ 28.7 µg/mL) and the MIC [8] was 16 µM (≈ 28.7 µg/mL). The MIC [9] was 16 µM (≈ 28.7 µg/mL) and the MIC [10] was > 16 µM.

An MIC [11] of 2 µM (≈ 5.51 µg/mL), an MIC [12] of 2 µM (≈ 5.51 µg/mL) and an MIC [13] of 2 µM (≈ 5.51 µg/mL) were found for CC[C@H](C)[C@H](NC(=O)[C@H](C)NC(=O)[C@H](CCC(=O)O)NC(=O)[C@H](Cc1cnc[nH]1)NC(=O)[C@@H](NC(=O)[C@H](CCCCN)NC(=O)[C@H](CCC(N)=O)NC(=O)[C@H](Cc1ccccc1)NC(=O)[C@@H](NC(=O)[C@H](CCCCN)NC(=O)[C@H](CCCCN)NC(=O)[C@H](CC(C)C)NC(=O)[C@H](C)NC(=O)[C@H](CC(N)=O)NC(=O)[C@H](CC(C)C)NC(=O)CN)C(C)C)[C@@H](C)CC)C(=O)N[C@@H](CCCCN)C(=O)N[C@@H](CC(C)C)C(=O)N[C@H](C(=O)N[C@@H](CC(N)=O)C(=O)N[C@@H](CC(N)=O)C(=O)N[C@@H](Cc1cnc[nH]1)C(=O)N[C@H](C(=O)N[C@@H](CCC(N)=O)C(N)=O)C(C)C)[C@@H](C)CC [GLNALKKVFQKIHEAIKLINNHVQ] in this work. For the same compound, the MIC [14] was ≥ 32 µM, the MIC [15] was 4 µM (≈ 11 µg/mL) and the MIC [16] was ≥ 32 µM. The MIC [17] was 4 µM (≈ 11 µg/mL) and the MIC [18] was 4 µM (≈ 11 µg/mL).

In the case of CC[C@H](C)[C@H](NC(=O)[C@H](Cc1ccc(O)cc1)NC(=O)[C@H](Cc1ccc(O)cc1)NC(=O)[C@H](CO)NC(=O)CNC(=O)CNC(=O)[C@H](CC(N)=O)NC(=O)[C@H](CCCN=C(N)N)NC(=O)[C@H](CC(C)C)NC(=O)[C@H](Cc1ccccc1)NC(=O)[C@H](CC(N)=O)NC(=O)CN)C(=O)N[C@H](C(=O)N1CCC[C@H]1C(=O)N[C@@H](C)C(=O)N[C@@H](Cc1ccccc1)C(=O)N[C@@H](CCCN=C(N)N)C(=O)NCC(=O)O)C(C)C [GNFLRNGGSYYIVPAFRG], the MIC [19] is reported as 30 µM (≈ 59.6 µg/mL), the MIC [20] is reported as > 30 µM and the MIC [21] is reported as 30 µM (≈ 59.6 µg/mL). For the same compound, the MIC [22] was 30 µM (≈ 59.6 µg/mL) and the MIC [23] was 30 µM (≈ 59.6 µg/mL).

An MIC (Aspergillus niger) of 26.6 µM (≈ 50 µg/mL) and an MIC (Penicillium expansum) of 13.3 µM (≈ 25 µg/mL) were found for CC(C)C[C@H](NC(=O)[C@H](Cc1ccccc1)NC(=O)[C@H](CCCN=C(N)N)NC(=O)[C@@H]1CCCN1C(=O)[C@H](C)NC(=O)[C@H](Cc1c[nH]c2ccccc12)NC(=O)[C@H](Cc1c[nH]c2ccccc12)NC(=O)[C@H](C)NC(=O)[C@H](CCCN=C(N)N)NC(=O)[C@H](Cc1ccccc1)NC(=O)[C@H](Cc1ccccc1)NC(=O)[C@H](CCCCN)NC(=O)[C@@H](N)CCCCN)C(=O)N[C@@H](CCCCN)C(N)=O [KKFFRAWWAPRFLK] in this work.

An MIC [24] of 1.83 µM (≈ 2 µg/mL), an MIC [25] of 7.3 µM (≈ 7.99 µg/mL) and an MIC [26] of 3.65 µM (≈ 4 µg/mL) were found for CC[C@H](C)[C@H](NC(=O)[C@H](CC(C)C)NC(=O)[C@H](CC(C)C)NC(=O)[C@@H](N)CC(C)C)C(=O)N[C@H](C(=O)N[C@@H](CC(C)C)C(=O)N[C@@H](CCCN=C(N)N)C(=O)N[C@@H](CCCCN)C(=O)N[C@@H](CCCCN)C(N)=O)C(C)C [LLLIVLRKK] in this work. It also gave an MIC [27] of 3.65 µM (≈ 4 µg/mL), an MIC [28] of 1.83 µM (≈ 2 µg/mL) and an MIC [29] of 3.65 µM (≈ 4 µg/mL). The MIC [30] was 3.65 µM (≈ 4 µg/mL), the MIC [31] was 1.83 µM (≈ 2 µg/mL) and the MIC [32] was 3.65 µM (≈ 4 µg/mL). For the same compound, the MIC [33] was 3.65 µM (≈ 4 µg/mL) and the MIC [34] was 0.913 µM (≈ 0.999 µg/mL).

For CC(C)C[C@H](NC(=O)[C@H](Cc1cnc[nH]1)NC(=O)[C@H](CC(C)C)NC(=O)[C@H](CO)NC(=O)[C@H](CC(C)C)NC(=O)[C@H](CCCCN)NC(=O)[C@H](Cc1ccccc1)NC(=O)[C@@H]1CCCN1)C(N)=O [PFKLSLHL], the MIC (Staphylococcus aureus MR) was ≥ 128 µM, the MIC [35] was 31.4 µM (≈ 30 µg/mL) and the MIC [36] was ≥ 63.9 µM. For the same compound, the MIC [37] was ≥ 63.9 µM, the MIC [38] was ≥ 64 µM and the MIC (Escherichia coli ESBL) was ≥ 32 µM. The MIC (Pseudomonas aeruginosa) was 32 µM (≈ 30.5 µg/mL), the MIC [39] was 32 µM (≈ 30.5 µg/mL) and the MIC [40] was ≥ 32 µM. It also gave an MIC [41] of 15.7 µM (≈ 15 µg/mL), an MIC (Candida krusei ATCC 6258) of 31.4 µM (≈ 30 µg/mL) and an MIC [20] of 64 µM (≈ 61 µg/mL). The MIC [42] was 64 µM (≈ 61 µg/mL), the MIC [2] was 32 µM (≈ 30.5 µg/mL) and the MIC [43] was ≥ 32 µM. The MIC [10] was 128 µM (≈ 122 µg/mL).
